Results as given in US20240158368A1, “Pyrrolidine Main Protease Inhibitors as Antiviral Agents” (AbbVie Inc., priority 2022, published 2024).
pEC50: −log10 of the molar value. Read-outs that look alike come from different tables or passages of the source.

Assays:
[1] = molecular target: 229E Mpro (Human coronavirus 229E (HCoV-229E), UniProt P0C6X1); format: biochemical
[2] = molecular target: SARS-CoV-2 Mpro (Severe acute respiratory syndrome coronavirus 2 (2019-nCoV) (SARS-CoV-2), UniProt P0DTD1); format: biochemical
[3] = test system: OC43 virus; assay: microbe, parasite or virus in culture; format: cell-based; settings: Betacoronavirus 1, OC43, Huh-7, read-out: Antiviral OC43 EC50 (μM)
[4] = test system: SARS-CoV-2 (strain USA-WA1/2020); assay: microbe, parasite or virus in culture; format: cell-based; settings: for pEC50: Severe acute respiratory syndrome coronavirus 2, HeLa-ACE2 cells, read-out: Antiviral CoV-2 EC50
[5] = in vitro; settings: PAMPA
[6] = in vitro; settings: human, microsomes, pH 7.4
[7] = molecular target: MERS Mpro (Middle East respiratory syndrome-related coronavirus (isolate United Kingdom/H123990006/2012) (MERS-CoV) (Betacoronavirus England 1), UniProt K9N7C7); assay: biochemical
[8] = test system: 229E virus; assay: organism not typed; format: cell-based; settings: Huh-7, read-out: Antiviral 229E EC50 (μM)
[9] = molecular target: OC43 Mpro (Human coronavirus OC43 (HCoV-OC43), UniProt P0C6X6); format: biochemical
[10] = in vitro; settings: rat, microsomes, pH 7.4
[11] = molecular target: SARS-CoV-1 Mpro (Severe acute respiratory syndrome coronavirus (SARS-CoV), UniProt P0C6X7); format: biochemical

Chain of MERS Mpro (K9N7C7 3248-3553 limits assumed): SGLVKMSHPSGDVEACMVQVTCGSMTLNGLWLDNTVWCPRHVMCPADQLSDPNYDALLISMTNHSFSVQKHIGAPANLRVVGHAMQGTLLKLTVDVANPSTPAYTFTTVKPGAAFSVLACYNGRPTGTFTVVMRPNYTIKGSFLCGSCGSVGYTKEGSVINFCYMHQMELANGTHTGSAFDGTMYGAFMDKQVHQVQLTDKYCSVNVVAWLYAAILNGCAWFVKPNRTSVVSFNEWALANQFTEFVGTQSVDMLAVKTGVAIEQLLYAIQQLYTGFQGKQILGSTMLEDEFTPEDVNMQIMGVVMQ
Chain of 229E Mpro (P0C6X1 2966-3267 limits assumed): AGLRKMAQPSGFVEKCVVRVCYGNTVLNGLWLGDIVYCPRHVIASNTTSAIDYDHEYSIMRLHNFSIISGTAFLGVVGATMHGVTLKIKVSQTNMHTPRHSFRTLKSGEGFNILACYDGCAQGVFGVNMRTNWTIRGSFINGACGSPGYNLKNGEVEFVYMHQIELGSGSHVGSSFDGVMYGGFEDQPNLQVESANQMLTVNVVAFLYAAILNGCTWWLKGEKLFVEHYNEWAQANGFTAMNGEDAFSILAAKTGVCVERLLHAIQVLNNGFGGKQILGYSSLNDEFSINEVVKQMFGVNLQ
Chain of OC43 Mpro (P0C6X6 3247-3549 limits assumed): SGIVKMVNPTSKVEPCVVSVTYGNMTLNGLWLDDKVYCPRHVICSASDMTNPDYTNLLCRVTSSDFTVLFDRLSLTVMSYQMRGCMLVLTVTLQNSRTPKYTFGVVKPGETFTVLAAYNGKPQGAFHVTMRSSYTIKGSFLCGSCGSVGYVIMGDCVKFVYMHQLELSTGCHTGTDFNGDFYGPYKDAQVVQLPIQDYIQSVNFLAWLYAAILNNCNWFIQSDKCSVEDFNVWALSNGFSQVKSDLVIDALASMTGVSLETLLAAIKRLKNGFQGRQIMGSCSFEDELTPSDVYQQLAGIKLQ

Row | Compound | pEC50 [1] | pEC50 [2] | EC50 [3] [µM] | pEC50 [4] | Papp [5] [×10⁻⁶ cm/s] | CLint scaled [6] [mL/min/kg] | pEC50 [7] | EC50 [8] [µM] | pEC50 [9] | CLint scaled [10] [mL/min/kg] | pEC50 [11] | EC50 ([4]; Severe acute respiratory syndrome coronavirus 2, HeLa-ACE2, read-out: Antiviral CoV-2 EC50 (μM)) [µM]
1 | O=C(N[C@@H]1CCN(c2c(C(=O)N3CCOCC3)cc(F)cc2C2CC2)C1)c1cc(=O)[nH]c2c(F)cccc12 [Compound 46] | 8.56 | 9.33 | 0.049 | 7.68 | 15.2 | 53.3 | 8.76 | 0.073 | 9.09 | 897 |  | 
2 | O=C(N[C@@H]1CCN(c2c(C(=O)N3CC4(COC4)C3)cc(Br)cc2C(F)(F)F)C1)c1cc(=O)[nH]c2c(F)cccc12 [Compound 73] | 8.24 | 9.28 |  | 7.91 | 11.7 | 117 | 8.77 |  | 8.95 | 327 | 8.42 | 
3 | NC(=O)c1cc(C(=O)N2CCOCC2)c(N2CC[C@@H](NC(=O)c3cc(=O)[nH]c4c(F)cccc34)C2)c(C(F)(F)F)c1 [Compound 35] | 8.59 | 9.28 |  |  | 0.1 | < 28.3 | 9.03 |  | 7.78 | 46.7 | 8.61 | 
4 | Cc1cc(C(=O)N2CCOCC2)c(N2C[C@H](NC(=O)c3cc(=O)[nH]c4c(F)c(F)ccc34)CC2=O)c(C2CC2)c1 [Compound 75] | 8.21 | 9.20 |  | 7.64 | 2.46 | < 33.3 | 8.76 |  | 8.65 | < 55 | 9.14 | 
5 | CN1CCN(C(=O)c2cc(Br)cc(C(F)(F)F)c2N2CC[C@@H](NC(=O)c3cc(=O)[nH]c4c(F)cccc34)C2)CC1 [Compound 63] | 8.70 | 9.25 |  | 7.90 | 5.6 | 357 | 8.97 |  | 9.04 | 722 | 8.90 | 
6 | C[C@@H]1C[C@@H](NC(=O)c2cc(=O)[nH]c3c(F)cccc23)CN1c1c(C(=O)N2CCOCC2)cc(C#N)cc1C(F)(F)F [Compound 30] | 8.90 | 9.38 | 0.029 |  | 13.3 | 61.7 | 8.98 | 0.011 | 9.24 | 303 |  | 
7 | Cc1cc(C(=O)N2CCOCC2)c(N2CC[C@@H](NC(=O)c3cc(C)[nH]c(=O)c3F)C2)c(C2CC2)c1 [Compound 60] | 8.29 | 9.32 |  | 6.74 | 2.95 | 66.7 | 8.85 |  | 8.91 |  | 9.13 | 
8 | O=C(N[C@@H]1CCN(c2c(C(=O)N3CCOCC3)cc(Cl)cc2C(F)(F)F)C1)c1c(F)c(=O)[nH]c2c(F)cccc12 [Compound 55] | 8.76 | 9.38 |  | 8.34 | 18.6 | 157 | 9.08 |  | 9.38 | 318 | 9.25 | 
9 | COCCN1CCN(C(=O)c2cc(Br)cc(C(F)(F)F)c2N2CC[C@@H](NC(=O)c3cc(=O)[nH]c4c(F)cccc34)C2)CC1 [Compound 67] | 8.37 | 9.30 |  |  | 16.3 | 313 | 8.82 |  | 8.82 | 1180 | 8.59 | 
10 | COc1cccc2[nH]c(=O)cc(C(=O)N[C@@H]3CCN(c4c(C5CC5)ccc(F)c4C(=O)N4CCOCC4)C3)c12 [Compound 78] | 8.70 | 8.85 | 0.0978 | 6.34 | 2.46 | 188 | 8.64 | 0.0481 | 8.84 | 418 |  | 
11 | Cc1cc(C(=O)N2CCOCC2)c(N2CC[C@@H](NC(=O)c3cc(=O)[nH]c4c(F)cccc34)C2)c(C2CC2)c1 [Compound 45] | 8.82 | 9.38 | < 0.03 | 7.73 | 14.7 | 352 | 9.15 | 0.0561 | 9.29 | 942 |  | 
12 | O=C(N[C@@H]1CCN(c2c(C(=O)N3CCN4CCOCC4C3)cc(Br)cc2C(F)(F)F)C1)c1cc(=O)[nH]c2c(F)cccc12 (some centres unmarked) [Compound 71] | 8.42 | 9.38 |  |  | 18.8 | 423 | 9.11 |  | 9.18 | 358 | 8.71 | 
13 | N#Cc1cc(C(=O)N2CCOCC2)c(N2CC[C@@H](NC(=O)c3c(F)c(=O)[nH]c4ccccc34)C2)c(C(F)(F)F)c1 [Compound 6] | 8.63 | 9.11 |  | 7.66 | 3.22 | < 35 | 8.60 |  | 8.84 | 81.7 |  | 
14 | COc1cccc2[nH]c(=O)cc(C(=O)N[C@@H]3CCN(c4c(C(=O)N5CCOCC5)cc(Cl)nc4C4CC4)C3)c12 [Compound 82] | 7.87 | 9.00 | 0.083 | 6.62 | 3.1 | 56.7 | 8.54 | 1.17 | 8.79 | 51.7 |  | 
15 | COc1cc(F)cc2[nH]c(=O)cc(C(=O)N[C@@H]3CCN(c4c(C(=O)N5CCOCC5)cc(Br)cc4C(F)(F)F)C3)c12 [Compound 57] | 9.06 | 9.38 | 0.095 |  | 4.09 | 125 | 9.28 | 0.083 | 9.38 | 437 |  | 
16 | O=C(N[C@@H]1CCN(c2c(C(=O)N3CCOCC3)cc(Br)cc2C(F)(F)F)C1)c1cc(=O)[nH]c2c(F)ccc(F)c12 [Compound 52] | 8.45 | 9.37 |  | 8.05 | 12.6 | 183 | 8.99 |  | 9.08 | 452 |  | 
17 | O=C(N[C@@H]1CCN(c2c(C(=O)N3CCOCC3)cc(F)cc2C(F)(F)F)C1)c1cc(=O)[nH]c2c(F)cc(F)cc12 [Compound 38] | 8.23 | 8.74 | 0.327 |  | 14.5 | 173 | 8.62 | 0.142 | 8.04 | 625 |  | 
18 | N#Cc1cc(C(=O)N2CCOCC2)c(N2CC[C@@H](NC(=O)c3c(F)c(=O)[nH]c4c(F)cccc34)C2)c(C(F)F)c1 [Compound 39] | 8.46 | 9.38 |  | 7.72 | 4.71 | < 25 | 8.95 |  | 8.98 | < 41.7 | 8.59 | 
19 | Cc1cc(C(=O)N[C@@H]2CCN(c3c(C(=O)N4CCOCC4)cc(Br)cc3C(F)(F)F)C2)c(F)c(=O)[nH]1 [Compound 3, (R)—N-(1-(4-bromo-2-(morpholine-4-carbonyl)-6-(trifluoromethyl)phenyl)pyrrolidin-3-yl)-3-fluoro-6-methyl-2-oxo-1,2-dihydropyridine-4-carboxamide] | 7.89 | 9.20 |  | 7.69 | 5.84 | < 36.7 | 8.91 |  | 8.41 | < 60 | 9.01 | 
20 | CN1CCN(C(=O)c2cc(Cl)cc(C(F)(F)F)c2N2CC[C@@H](NC(=O)c3cc(=O)[nH]c4c(F)cccc34)C2)CC1 [Compound 37] | 8.60 | 9.20 |  | 7.54 | 6.23 | 150 | 8.91 |  | 9.00 | 423 | 8.77 | 
21 | O=C(N[C@@H]1CCN(c2c(C(=O)N3CC4CC(C3)O4)cc(Br)cc2C(F)(F)F)C1)c1cc(=O)[nH]c2c(F)cccc12 [Compound 65] | 8.56 | 9.38 |  |  | 16 | 93.3 | 8.81 |  | 8.89 | 258 | 8.73 | 0.0092
22 | Cc1cc(C(=O)N[C@@H]2CCN(c3c(C(=O)N4CCOCC4)cc(C#N)cc3C(F)(F)F)C2)c(F)c(=O)[nH]1 [Compound 10] | 8.12 | 9.27 |  | 6.23 | 0.7 | < 30 | 8.82 |  | 7.92 | < 50 |  | 
23 | Cc1[nH]c(=O)cc(C(=O)N[C@@H]2CCN(c3c(C(=O)N4CCOCC4)cc(Br)cc3C(F)(F)F)C2)c1F [Compound 59] | 7.69 | 8.95 |  | 7.02 | 8.24 | < 61.7 | 9.00 |  | 8.22 | < 68.3 |  | 
